Experimental data taken from ChEMBL document CHEMBL4118281, “Azoalkyl ether imidazo[2,1-b]benzothiazoles as potentially antimicrobial agents with novel structural skeleton” (2018).
In brackets after ≈: the same amount, converted by molar mass. Activity calls are given as the source filed them. No cut-off for these calls is given here.

Experiments:
[1] = tested on: Salmonella typhi; assay: Antibacterial activity against Bacillus typhi after 24 hrs by micro broth dilution method; type: functional, Salmonella enterica subsp. enterica serovar Typhi; conditions: Salmonella enterica
[2] = tested on: Staphylococcus aureus; assay: Antibacterial activity against Staphylococcus aureus ATCC 25923 after 24 hrs by micro broth dilution method; type: functional; conditions: ATCC 25923, 24 h
[3] = tested on: Escherichia coli; assay: Antibacterial activity against Escherichia coli JM109 after 24 hrs by micro broth dilution method; type: functional; conditions: JM109, 24 h
[4] = tested on: Saccharomyces cerevisiae; assay: Antifungal activity against Beer yeast after 24 hrs by two fold serial dilution based spectrophotometric analysis; type: functional
[5] = tested on: Escherichia coli; assay: Antibacterial activity against Escherichia coli DH52 after 24 hrs by micro broth dilution method; type: functional; conditions: DH52, 24 h
[6] = tested on: Aspergillus flavus; assay: Antifungal activity against Aspergillus flavus after 24 hrs by two fold serial dilution based spectrophotometric analysis; type: functional
[7] = tested on: Candida albicans; assay: Antifungal activity against Candida albicans after 24 hrs by two fold serial dilution based spectrophotometric analysis; type: functional
[8] = tested on: Micrococcus luteus; assay: Antibacterial activity against Micrococcus luteus ATCC 4698 after 24 hrs by micro broth dilution method; type: functional; conditions: NCTC 2665, 24 h
[9] = tested on: Bacillus; assay: Antibacterial activity against Bacillus proteus ATCC 13315 after 24 hrs by micro broth dilution method; type: functional; conditions: ATCC 13315, 24 h
[10] = tested on: Shigella dysenteriae; assay: Antibacterial activity against Shigella dysenteriae after 24 hrs by micro broth dilution method; type: functional
[11] = tested on: Shigella dysenteriae; assay: Potency index, ratio of norfloxacin MIC to compound MIC for Shigella dysenteriae; type: functional
[12] = tested on: Cyberlindnera jadinii; assay: Antifungal activity against Candida utilis after 24 hrs by two fold serial dilution based spectrophotometric analysis; type: functional; conditions: Williopsis jadinii
[13] = tested on: Shigella dysenteriae; assay: Potency index, ratio of chloromycin MIC to compound MIC for Shigella dysenteriae; type: functional
[14] = tested on: Pichia norvegensis; assay: Antifungal activity against Candida mycoderma after 24 hrs by two fold serial dilution based spectrophotometric analysis; type: functional
[15] = tested on: Bacillus subtilis; assay: Antibacterial activity against Bacillus subtilis after 24 hrs by micro broth dilution method; type: functional
[16] = tested on: Staphylococcus aureus; assay: Antibacterial activity against methicillin-resistant Staphylococcus aureus N315 after 24 hrs by micro broth dilution method; type: functional; conditions: N315, 24 h
[17] = tested on: Pseudomonas aeruginosa; assay: Antibacterial activity against Pseudomonas aeruginosa after 24 hrs by micro broth dilution method; type: functional
[18] = tested on: Aspergillus flavus; assay: Potency index, ratio of fluconazole MIC to compound MIC for Aspergillus flavus; type: functional
[19] = tested on: Staphylococcus aureus; assay: Potency index, ratio of chloromycin MIC to compound MIC for methicillin-resistant Staphylococcus aureus N315; type: functional
[20] = tested on: Staphylococcus aureus; assay: Antibacterial activity against methicillin-resistant Staphylococcus aureus N315 after 3 passages; type: functional
[21] = tested on: Staphylococcus aureus; assay: Antibacterial activity against methicillin-resistant Staphylococcus aureus N315 after 8 passages; type: functional
[22] = tested on: Staphylococcus aureus; assay: Bactericidal activity against methicillin-resistant Staphylococcus aureus N315 assessed as reduction in bacterial load at 4 times MIC after 120 mins by time kill assay (reference value: 5.77 log10CFU/ml); type: functional
[23] = tested on: Staphylococcus aureus; assay: Bactericidal activity against methicillin-resistant Staphylococcus aureus N315 assessed as reduction in bacterial load at 4 times MIC up to 1 hr by time kill assay; type: functional
[24] = tested on: Staphylococcus aureus; assay: Bactericidal activity against methicillin-resistant Staphylococcus aureus N315 assessed as reduction in bacterial load at 4 times MIC after 200 mins by time kill assay (reference value: 9.84 log10CFU/ml); type: functional
[25] = tested on: Calf thymus DNA; assay: Binding affinity to calf thymus DNA assessed as hypsochromic shift by UV-Visible spectroscopic method; type: nucleic-acid assay; conditions: Bos taurus
[26] = tested on: Staphylococcus aureus; assay: Bactericidal activity against methicillin-resistant Staphylococcus aureus N315 assessed as reduction in bacterial load at 4 times MIC after 160 mins by time kill assay (reference value: 7.47 log10CFU/ml); type: functional
[27] = tested on: Staphylococcus aureus; assay: Antibacterial activity against methicillin-resistant Staphylococcus aureus N315 after 16 passages; type: functional, organism-based
[28] = tested on: Staphylococcus aureus; assay: Bactericidal activity against methicillin-resistant Staphylococcus aureus N315 assessed as reduction in bacterial load at 4 times MIC after 220 mins by time kill assay (reference value: 10.39 log10CFU/ml); type: functional
[29] = tested on: Staphylococcus aureus; assay: Antibacterial activity against methicillin-resistant Staphylococcus aureus N315 after 5 passages; type: functional
[30] = tested on: Staphylococcus aureus; assay: Bactericidal activity against methicillin-resistant Staphylococcus aureus N315 assessed as reduction in bacterial load at 4 times MIC after 180 mins by time kill assay (reference value: 8.63 log10CFU/ml); type: functional
[31] = tested on: Calf thymus DNA; assay: Binding affinity to calf thymus DNA assessed as DNA intercalation by UV-Visible spectroscopic method; type: nucleic-acid assay; conditions: Bos taurus
[32] = tested on: Calf thymus DNA; assay: Binding affinity to calf thymus DNA assessed as hypochromic shift by UV-Visible spectroscopic method; type: nucleic-acid assay; conditions: Bos taurus
[33] = tested on: Staphylococcus aureus; assay: Potency index, ratio of norfloxacin MIC to compound MIC for methicillin-resistant Staphylococcus aureus N315; type: functional
[34] = tested on: Staphylococcus aureus; assay: Antibacterial activity against methicillin-resistant Staphylococcus aureus N315 after 6 passages; type: functional
[35] = tested on: Staphylococcus aureus; assay: Antibacterial activity against methicillin-resistant Staphylococcus aureus N315 after 2 passages; type: functional
[36] = tested on: Staphylococcus aureus; assay: Antibacterial activity against methicillin-resistant Staphylococcus aureus N315 after 7 passages; type: functional
[37] = tested on: Staphylococcus aureus; assay: Antibacterial activity against methicillin-resistant Staphylococcus aureus N315 after 1 passage; type: functional
[38] = tested on: Staphylococcus aureus; assay: Antibacterial activity against methicillin-resistant Staphylococcus aureus N315 after 4 passages; type: functional
[39] = tested on: Calf thymus DNA; assay: Inhibition of neutral red binding to calf thymus DNA by UV-Visible spectroscopic method; type: nucleic-acid assay; conditions: Bos taurus
[40] = tested on: Staphylococcus aureus; assay: Bactericidal activity against methicillin-resistant Staphylococcus aureus N315 assessed as reduction in bacterial load at 4 times MIC after 140 mins by time kill assay (reference value: 6.413 log10CFU/ml); type: functional
[41] = tested on: Staphylococcus aureus; assay: Bactericidal activity against methicillin-resistant Staphylococcus aureus N315 assessed as reduction in bacterial load at 4 times MIC after 270 mins by time kill assay (reference value: 10.26 log10CFU/ml); type: functional
[42] = tested on: Staphylococcus aureus; assay: Bactericidal activity against methicillin-resistant Staphylococcus aureus N315 assessed as reduction in bacterial load at 4 times MIC after 240 mins by time kill assay (reference value: 10.42 log10CFU/ml); type: functional

Structure (SMILES): BrCCCOCc1c(-c2ccccc2)nc2sc3ccccc3n12
- MIC [1]: 16 µg/mL (≈ 39.9 µM)
- MIC [2]: 32 µg/mL (≈ 79.7 µM)
- MIC [3]: 32 µg/mL (≈ 79.7 µM)
- MIC [4]: 8 µg/mL (≈ 19.9 µM)
- MIC [5]: 16 µg/mL (≈ 39.9 µM)
- MIC [6]: 4 µg/mL (≈ 9.97 µM)
- MIC [7]: 4 µg/mL (≈ 9.97 µM)
- MIC [8]: 32 µg/mL (≈ 79.7 µM)
- MIC [9]: 16 µg/mL (≈ 39.9 µM)
- MIC [10]: 4 µg/mL (≈ 9.97 µM)
- Ratio [11]: 4
- MIC [12]: 64 µg/mL (≈ 159 µM)
- Ratio [13]: 4
- MIC [14]: 32 µg/mL (≈ 79.7 µM)
- MIC [15]: 4 µg/mL (≈ 9.97 µM)
- MIC [16]: 8 µg/mL (≈ 19.9 µM)
- MIC [17]: 8 µg/mL (≈ 19.9 µM)
- Ratio [18]: 64

Structure (SMILES): Cc1ncc([N+](=O)[O-])n1CCCOCc1c(-c2ccccc2)nc2sc3ccccc3n12
- Ratio [19]: 4 - 8
- MIC [20]: 14 µM (≈ 6.27 µg/mL)
- MIC [21]: 15 µM (≈ 6.71 µg/mL)
- Activity [22]: 5.77 log10CFU/ml
- MIC [1]: 1 µg/mL (≈ 2.23 µM)
- Activity [23]: >3 log10CFU/ml
- MIC [2]: 8 µg/mL (≈ 17.9 µM)
- MIC [3]: 4 µg/mL (≈ 8.94 µM)
- MIC [4]: 256 µg/mL (≈ 572 µM)
- Activity [24]: 1.74 log10CFU/ml
- MIC [5]: 4 µg/mL (≈ 8.94 µM)
- Activity [25]: Dose-dependent effect
- Activity [26]: 1.98 log10CFU/ml
- Activity [27]: Active
- MIC [6]: 8 µg/mL (≈ 17.9 µM)
- Activity [28]: 1.66 log10CFU/ml
- MIC [29]: 15 µM (≈ 6.71 µg/mL)
- Activity [30]: 1.81 log10CFU/ml
- Activity [31]: Active
- Activity [32]: Active
- MIC [7]: 2 µg/mL (≈ 4.47 µM)
- Ratio [33]: 4 - 8
- MIC [8]: 32 µg/mL (≈ 71.5 µM)
- MIC [9]: 8 µg/mL (≈ 17.9 µM)
- MIC [34]: 15 µM (≈ 6.71 µg/mL)
- MIC [35]: 13 µM (≈ 5.82 µg/mL)
- MIC [36]: 15 µM (≈ 6.71 µg/mL)
- MIC [10]: 4 µg/mL (≈ 8.94 µM)
- MIC [37]: 13 µM (≈ 5.82 µg/mL)
- MIC [12]: 32 µg/mL (≈ 71.5 µM)
- MIC [38]: 16 µM (≈ 7.16 µg/mL)
- inhibition [39]: Active
- Activity [40]: 3.29 log10CFU/ml
- MIC [14]: 16 µg/mL (≈ 35.8 µM)
- Activity [41]: 1.81 log10CFU/ml
- MIC [15]: 4 µg/mL (≈ 8.94 µM)
- MIC [16]: 2 µg/mL (≈ 4.47 µM)
- MIC [17]: 2 µg/mL (≈ 4.47 µM)
- Activity [42]: 1.6 log10CFU/ml
